Assays:
[1] = Cytotoxicity evaluation, CellTiter-Blue Cell Viability Assay; type: cell-based; settings: human, Zluc cells (Huh-7-derived cell line), read-out: HCV Replicon CC50
Experimental: (§1) For cytotoxicity evaluation, Zluc cells were treated with compound as described above, and cell viability was monitored using the CellTiter-Blue Cell Viability Assay (Promega) by adding 20 μL of the assay solution to each well. The plates were then incubated at 37° C./5% CO2 for at least 3 hours.

[2] = system: Zluc cells (Huh-7-derived cell line); test: as above; type: cell-based; settings: read-out: HCV Replicon CC50
Experimental: as §1

| Structure (SMILES) | CC50 [1] | CC50 [2] |
| --- | --- | --- |
| CCOC(=O)OC(C)OP(=O)(N[C@@H](C)C(=O)OC(C)C)OC[C@H]1O[C@@H](n2cnc3c(OC)nc(N)nc32)[C@](C)(F)[C@@H]1O (single isomer, unassigned) [Compound 14] | > 50 µM | – |
| CCOC(=O)OC(C)OP(=O)(N[C@@H](C)C(=O)OC(C)C)OC[C@H]1O[C@@H](n2cnc3c(OC)nc(N)nc32)[C@](C)(F)[C@@H]1O (single isomer, unassigned) [Compound 15] | – | > 50 µM |

— patent US20130064794A1, “Substituted Carbonyloxymethylphosphoramidate Compounds and Pharmaceutical Compositions for the Treatment of Viral Infections” (IDENIX PHARMACEUTICALS, INC., priority 2011, published 2013)
